From patent US20230091225A1, “Bifunctional chimeric heterocyclic compounds for targeted degradation of androgen receptors and use thereof” (HINOVA PHARMACEUTICALS INC., priority 2019, published 2023)
Read-outs that look alike come from different tables or passages of the source.

Key:
androgen receptor (AR) = target: T1, androgen receptor (AR) (Homo sapiens, UniProt P10275); experiment: Degradation of androgen receptor (AR) protein in VCaP cells by ELISA; type: cell-based; settings: 16 h; for inhibition at 0.1 µM: read-out: % degradation
T1 sequence (P10275 1-920): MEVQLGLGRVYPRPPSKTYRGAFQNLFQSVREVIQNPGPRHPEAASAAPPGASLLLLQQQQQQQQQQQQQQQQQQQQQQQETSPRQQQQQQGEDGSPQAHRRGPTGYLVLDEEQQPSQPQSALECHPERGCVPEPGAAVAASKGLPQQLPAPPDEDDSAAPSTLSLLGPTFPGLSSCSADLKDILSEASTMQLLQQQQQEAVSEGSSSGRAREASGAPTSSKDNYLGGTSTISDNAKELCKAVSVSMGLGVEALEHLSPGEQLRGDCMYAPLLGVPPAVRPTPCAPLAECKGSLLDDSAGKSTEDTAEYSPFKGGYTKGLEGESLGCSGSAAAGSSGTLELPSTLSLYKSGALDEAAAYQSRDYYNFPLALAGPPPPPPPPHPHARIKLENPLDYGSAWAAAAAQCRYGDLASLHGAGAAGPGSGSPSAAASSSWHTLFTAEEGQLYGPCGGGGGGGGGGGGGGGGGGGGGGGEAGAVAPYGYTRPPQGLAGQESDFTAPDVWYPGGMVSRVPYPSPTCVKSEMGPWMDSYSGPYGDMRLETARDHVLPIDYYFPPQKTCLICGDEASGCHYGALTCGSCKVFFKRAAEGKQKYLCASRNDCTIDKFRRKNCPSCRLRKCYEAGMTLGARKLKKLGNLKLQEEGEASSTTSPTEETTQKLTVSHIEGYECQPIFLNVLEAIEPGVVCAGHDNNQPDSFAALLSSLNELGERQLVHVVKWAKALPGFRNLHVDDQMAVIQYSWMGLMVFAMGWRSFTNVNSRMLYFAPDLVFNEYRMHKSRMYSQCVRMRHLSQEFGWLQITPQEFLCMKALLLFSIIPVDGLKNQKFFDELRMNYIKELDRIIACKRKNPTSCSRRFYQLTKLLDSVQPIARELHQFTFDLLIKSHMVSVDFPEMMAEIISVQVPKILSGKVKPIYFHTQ

LNCaP/AR cells = experiment: Inhibition of proliferation of LNCaP/AR prostate cancer cells (CCK-8); type: cell-based
[1] = percentage of degraded AR at 100 nM, VCaP cells, ELISA

Row | SMILES | inhibition at 0.1 µM (androgen receptor (AR); [1]) [%] | IC50 (LNCaP/AR cells; LNCaP/AR, 144 h) [µM] | inhibition at 0.1 µM (androgen receptor (AR); VCaP) [%] | other results
1 | CC(=O)O[C@@H]1C[C@@H](C(=O)N[C@@H](C)c2ccc(-c3scnc3C)cc2)N(C(=O)[C@@H](NC(=O)COCCOCC#Cc2ccc3c(c2)CN([C@H]2C(C)(C)[C@H](Oc4ccc(C#N)c(Cl)c4)C2(C)C)C3=O)C(C)(C)C)C1 [Compound 12, (3R,5S)-1-((S)-2-(2-(2-((3-(2-((1r,3r)-3-(3-chloro-4-cyanophenoxy)-2,2,4,4-tetramethylcyclobutyl)-1-oxoisoindolin-5-yl)prop-2-yn-1-yl)oxy)propoxy)acetylamino)-3,3-dimethylbutyryl)-5-((((S)-1-acetic acid (4-(4-methylthiazol-5-yl)phenyl)ethyl)carbamoyl)pyrrolidin-3-yl acetate] | 50 to 79 | < 0.1 |  | 
2 | Cc1ncsc1-c1ccc([C@H](C)NC(=O)[C@@H]2C[C@@H](O)CN2C(=O)[C@@H](NC(=O)COCCOCC#Cc2ccc3c(c2)CN([C@H]2C(C)(C)[C@H](Oc4ccc(C#N)c(Cl)c4)C2(C)C)C3=O)C(C)(C)C)cc1 [Compound 13] |  |  |  | % degradation (androgen receptor (AR); [1]): B (79%-50%); IC50 (LNCaP/AR cells; proliferation of LNCap/AR cells, 6 days, CCK-8, read-out: IC50): < 0.1 µM
3 | CC(=O)O[C@@H]1C[C@@H](C(=O)N[C@@H](C)c2ccc(-c3scnc3C)cc2)N(C(=O)[C@@H](NC(=O)COCC(C)OCC#Cc2ccc3c(c2)CN([C@H]2C(C)(C)[C@H](Oc4ccc(C#N)c(Cl)c4)C2(C)C)C3=O)C(C)(C)C)C1 (stereo partly drawn) [Compound 14, (3R,5S)-1-((2S)-2-(2-(2-((3-(2-((1r,3r)-3-(3-chloro-4-cyanophenoxy)-2,2,4,4-tetramethylcyclobutyl)-1-oxoisoindol-5-yl)prop-2-yn-1-yl)oxy)propoxy)acetylamino)-3,3-dimethylbutyryl)-5-((((S)-1-acetic acid (4-(4-methylthiazol-5-yl)phenyl)ethyl)carbamoyl)pyrrolidin-3-yl acetate] | 50 to 79 | < 0.1 |  | 
4 | Cc1ncsc1-c1ccc([C@H](C)NC(=O)[C@@H]2C[C@@H](O)CN2C(=O)[C@@H](NC(=O)COCC(C)OCC#Cc2ccc3c(c2)CN([C@H]2C(C)(C)[C@H](Oc4ccc(C#N)c(Cl)c4)C2(C)C)C3=O)C(C)(C)C)cc1 (stereo partly drawn) [Compound 15] | 25 to 49 |  |  | IC50 (LNCaP/AR cells; 144 h, proliferation of LNCap/AR cells, 6 days, CCK-8, read-out: IC50): < 0.1 µM
5 | CC(=O)O[C@@H]1C[C@@H](C(=O)N[C@@H](C)c2ccc(-c3scnc3C)cc2)N(C(=O)[C@@H](NC(=O)CN2CCC(CN3CCN(c4ccc(C(=O)NC5C[C@@]6(C)O[C@]5(C)[C@@H]5C(=O)N(c7ccc(C#N)c(Cl)c7)C(=O)[C@@H]56)cn4)CC3)CC2)C(C)(C)C)C1 (stereo partly drawn) [Compound 17, (3R,5S)-1-((2S)-2-(2-(4-((4-(5-(((3aR,4R,7R,7aS)-2-(3-chloro-4-benzonitrile)-4,7-dimethyl-1,3-dioxooctahydro-1H-4,7-epoxyisoindolin-5-yl)carbamoyl) (pyridin-2-yl)piperazin-1-yl)methyl)piperidin-1-yl)acetylamino)-3,3-dimethylbutyryl)-5-(((S)-1-(4-(4-methylthiazol-5-yl)phenyl)ethyl)carbamoyl)pyrrolidin-3-yl acetate] |  | < 0.1 | 50 to 79 | 
6 | Cc1ncsc1-c1ccc([C@H](C)NC(=O)[C@@H]2C[C@@H](O)CN2C(=O)[C@@H](NC(=O)CN2CCC(CN3CCN(c4ccc(C(=O)NC5CC6(C)OC5(C)[C@@H]5C(=O)N(c7ccc(C#N)c(Cl)c7)C(=O)[C@@H]56)cn4)CC3)CC2)C(C)(C)C)cc1 (stereo partly drawn) [Compound 18, N-((3aR,4R,7R,7aS)-2-(3-chloro-4-benzonitrile)-4,7-dimethyl-1,3dioxooctahydro-1H-4,7-epoxyisoindolin-5-yl)-6-(4-((1-(2-(((S)-1-((2S,4R)-4-hydroxy-2-(((S)-1-(4-(4-methylthiazol-5-yl)phenyl)ethyl)carbamoyl)pyrrolidin-1-yl)-3,3-dimethyl-1-oxobutan-2-yl)amino)-2-oxoethyl)piperidine-4-yl)methyl)piperazin-1-yl)nicotinamide] |  | < 0.1 | > 80 | 
